Laboratory results from patent US20120122870A1, “Treatment Of Ischemia-Reperfusion Injury” (MUSC FOUNDATION FOR RESEARCH DEVELOPMENT, priority 2009, published 2012).
“Also recorded” adds a separate entry of the source.

How the values were obtained:
[1] = tested on: kidney ischemia-reperfusion in C57/Bl6 mice; experiment: Ischemia-reperfusion of the kidney (mild model), BUN and creatinine; type: in vivo; details: 50 mg/kg oral gavage
Method: ABC294640 reduces kidney damage following ischemia-reperfusion. Male C57/Bl6 mice (approximately 24 g) were first dosed with ABC294640 (50 mg/kg in 0.1 mL by oral gavage) or vehicle (0.1 mL in 0.375% Tween 80 in Phosphate-Buffered Saline), immediately followed by intraperitoneal injection of ketamine/xylazine for anesthesia. The procedure was performed on a heated surface using homeothermic pads to ensure the maintenance of animal body temperature. A midline incision was made and the two renal pedicles were located and clamped for 22 minutes or 25 minutes as indicated. Total blockage of the renal pedicle and thus artery was confirmed after several minutes as the kidney were seen to be dark red to purple in color, assuring correct clamp placement. […] One milliliter of pre-warmed (37° C.) sterile saline was instilled into the peritoneum at the time of closing using sutures for musculature and wound clips for the skin incision. Animals were maintained on homeothermic pads until awakening from anesthesia and post-operatively assessed for health.
Levels of blood urea nitrogen (BUN) were determined as an indicator of renal function. […] Therefore, the SK inhibitor substantially improves kidney function that persists for at least 3 days after drug administration.
ABC294640 reduces kidney damage following ischemia-reperfusion. Kidney ischemia-reperfusion was repeated as in Example 1, except that the duration of bilateral pedicle clamping was 25 minutes and animals were sacrificed 24 hours after surgery.
Ischemia-reperfusion of the kidney (mild model): Male C57/Bl6 mice (approximately 24 g) were first dosed with ABC294640 (50 mg/kg in 0.1 ml by oral gavage) or vehicle (0.1 ml in 0.375% Tween 80 in Phosphate-Buffered Saline), immediately followed by intraperitoneal injection of ketamine/xylazine for anesthesia. The procedure was performed on a heated surface using homeothermic pads to ensure the maintenance of animal body temperature. […] Animals were maintained on homethermic pads until awakening from anesthesia and post-operatively assessed for health.

[2] = tested on: neutrophil influx into the kidney (MPO activity); experiment: Kidney myeloperoxidase (MPO) activity after severe kidney IR; type: in vivo, mice; details: 50 mg/kg
Method: Myeloperoxidase (MPO) activity, which is reflective of neutrophil influx into the tissue, is often used as measure of local inflammation, and was assayed in the kidneys of the mice from FIG. 4. […] Therefore, the level of kidney MPO and expected inflammatory damage in vehicle-treated animals correlates with the observed reduction in renal function.

[3] = tested on: PMN infiltration in liver; experiment: PMN infiltration (MPO immunohistochemistry) after hepatic warm IR; type: in vivo, mice
Method: ABC294640 prevents hepatic warm ischemia-reperfusion (IR)-induced polymorphonuclear leukocyte (PMN) infiltration in mice. Hepatic warm ischemia was induced by clamping the mouse hepatic artery and portal vein to the upper three lobes of the liver as described in the original application. One hour later, the ischemic liver was reperfused by opening the vascular clamp. Livers were collected 6 h later and myeloperoxidase (MPO), a marker of PMNs, was detected immunohistochemically. MPO-positive cells were counted in 10 fields selected randomly per slide in a blinded manner to assess PMN infiltration. MPO-positive cells were ˜1/high power field (hpf) in livers from sham-operated mice (FIG. 16). Six hours after reperfusion, MPO-positive cells increased almost 10-fold, indicating pronounced inflammation. […] ABC294640 (50 mg/kg, i.g. once) decreased PMN infiltration by ˜70% at 6 h after reperfusion (FIG. 16). Livers from mice exposed to one dose of ABC294640 had lower PMN infiltration compared to the untreated mice even at 2 weeks after reperfusion. […] Immunohistochemistry: Sections were deparaffinized in xylene, rehydrated in a series of graded alcohol concentrations and placed in phosphate buffered saline with 0.1% Tween-20. […] Appropriate peroxidase-conjugated secondary antibodies (DAKO Corp.) were then applied, followed by 3,3′-diaminobenzidine chromagen as the peroxidase substrate. A light counterstain of Meyer's hematoxylin was applied.

[4] = tested on: lean liver transplantation in rats; experiment: Lean liver transplantation, serum ALT; type: in vivo; details: 60 μM in UW and Ringer's solutions plus 50 mg/kg i.p. to recipients; 6 h after LT; 8 h cold storage
Method: ABC294640 decreases graft injury after lean LT. To investigate whether ABC294640 protects liver grafts after LT, a pilot study was conducted. Lean livers were explanted and stored in UW solution for 8 h. ABC294640 was added to the UW solution and the lactated Ringer's post-storage solution at a concentration of 60 μM and injected into the recipients (50 mg/kg, i.p.) immediately after transplantation. […] Liver transplantation: Inbred male Lewis rats (200-250 g) were used to prevent immunological interference. Under ether anesthesia, heparin (200 IU) in 0.5 mL of lactated Ringer's solution was injected into the subhepatic vena cava. A 4-mm long stent prepared from polyethylene tubing (PE50) was inserted into the common bile duct and secured with a 6-0 suture. Livers were then flushed with 5 ml of ice-cold UW cold storage solution. Venous cuffs prepared from 14-gauge i.v. catheters were placed in the subhepatic vena cava and the portal vein. Liver explants were stored in UW solution (0-1° C.) for 4-24 h, rinsed with lactated Ringer's solution and then implanted (n=10 in each group). […] Clinical chemistry: Blood samples were collected from the vena cava at various times, and ALT and bilirubin were measured enzymatically using analytic kits from Pointe Scientific.

[5] = 25 minutes bilateral clamping, 24 hours after reperfusion

O=C(NCc1ccncc1)C12CC3CC(C1)CC(c1ccc(Cl)cc1)(C3)C2 [ABC294640, 3-(4-chlorophenyl)-N-(pyridin-4-ylmethyl)adamantane-1-carboxamide]
BUN levels vs vehicle [1, 5]: significantly lower; also recorded: substantially lower
creatinine levels vs vehicle [1, 5]: significantly lower; also recorded: substantially lower
BUN levels vs vehicle ([1]; bilateral renal pedicle clamping, 72 hours after reperfusion): significantly lower
increase in kidney MPO activity (neutrophil infiltration) [2]: reduces neutrophil infiltration; also recorded: completely blocked
decrease of PMN infiltration (MPO-positive cells) ([3]; 50 mg/kg, i.g. once, 6 h after reperfusion): ~70%
PMN infiltration after hepatic IR (in words) ([3]; livers harvested 6 h or 2 weeks after IR): inhibits PMN infiltration
PMN infiltration compared to untreated mice ([3]; one dose, 2 weeks after reperfusion): lower
serum ALT after lean LT vs vehicle [4]: markedly attenuated; also recorded: decreases ALT release
